The text below walks through data of ChEMBL document CHEMBL4251603, “Structure-activity studies on N-Substituted tranylcypromine derivatives lead to selective inhibitors of lysine specific demethylase 1 (LSD1) and potent inducers of leukemic cell differentiation” (Eur J Med Chem, 2018).

SMILES strings stand for the structures. Calls of active or inactive are those of the source. No cut-off for these calls is given here.

Data set [1] addresses T1, Lysine-specific histone demethylase 1A (Homo sapiens, UniProt O60341). The following applies: 100 uM.
In data set [2] the target is T2, Amine oxidase [flavin-containing] B (Homo sapiens, UniProt P27338).
T2 sequence (P27338 whole entry): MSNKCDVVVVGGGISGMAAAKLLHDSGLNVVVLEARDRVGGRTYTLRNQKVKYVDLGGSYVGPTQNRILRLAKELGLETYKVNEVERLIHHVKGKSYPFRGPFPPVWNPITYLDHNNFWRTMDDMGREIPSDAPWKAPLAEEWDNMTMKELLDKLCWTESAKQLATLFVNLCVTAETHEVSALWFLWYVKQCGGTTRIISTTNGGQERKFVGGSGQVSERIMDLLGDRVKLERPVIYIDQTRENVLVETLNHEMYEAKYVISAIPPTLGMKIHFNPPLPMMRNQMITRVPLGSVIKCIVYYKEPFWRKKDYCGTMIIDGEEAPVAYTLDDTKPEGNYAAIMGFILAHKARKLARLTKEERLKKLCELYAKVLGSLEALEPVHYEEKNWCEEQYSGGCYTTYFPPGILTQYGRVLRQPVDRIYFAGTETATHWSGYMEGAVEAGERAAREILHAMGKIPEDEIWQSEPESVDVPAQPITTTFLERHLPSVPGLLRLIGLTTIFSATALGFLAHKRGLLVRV
Kind of data set: (§1) Inhibition of MAO-B (unknown origin) at 10 uM using beetle luciferin derived luminogenic substrate preincubated for 15 mins followed by substrate addition measured after 60 mins by MAO-Glo assay relative to control. The conditions noted are these: 1 h, 10 µM.

The target in data set [3] is T3, MAO-A (Homo sapiens, UniProt P21397).
T3 sequence (P21397 whole entry): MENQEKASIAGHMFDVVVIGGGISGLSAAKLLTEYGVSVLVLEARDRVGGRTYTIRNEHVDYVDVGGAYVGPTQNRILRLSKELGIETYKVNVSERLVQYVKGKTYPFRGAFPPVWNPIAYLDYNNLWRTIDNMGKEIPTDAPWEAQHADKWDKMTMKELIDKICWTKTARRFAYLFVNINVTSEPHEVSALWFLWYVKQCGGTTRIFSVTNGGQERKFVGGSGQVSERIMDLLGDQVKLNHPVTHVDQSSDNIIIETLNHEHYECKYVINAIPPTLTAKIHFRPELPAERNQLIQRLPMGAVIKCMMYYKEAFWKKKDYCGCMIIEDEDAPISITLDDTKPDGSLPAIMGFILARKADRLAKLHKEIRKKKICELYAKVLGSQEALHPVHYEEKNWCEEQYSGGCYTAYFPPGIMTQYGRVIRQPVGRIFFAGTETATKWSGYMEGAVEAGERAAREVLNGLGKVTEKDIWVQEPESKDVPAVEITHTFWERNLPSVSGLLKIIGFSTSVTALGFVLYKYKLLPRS
Kind of data set: Inhibition of MAO-A (unknown origin) at 1 uM using beetle luciferin derived luminogenic substrate preincubated for 15 mins followed by substrate addition measured after 60 mins by MAO-Glo assay relative to control. The following applies: MAO-A enzyme (unknown origin), probe beetle luciferin derived luminogenic substrate.

Data set [4] concerns the target T3, MAO-A. Kind of data set: in vitro. The following applies: MAO-A enzyme (unknown origin), probe beetle luciferin derived luminogenic substrate.
Data set [5] has as its target T4, MAO-B (Homo sapiens, UniProt P27338).
T4 sequence (P27338 whole entry): T2 sequence (P27338 whole entry)
Described as §1. The conditions noted are these: MAO-B enzyme (unknown origin), probe beetle luciferin derived luminogenic substrate.

The subject of the next data set is THP-1. Kind of data set: Inhibition of colony formation in human THP1 cells at 0.5 to 50 uM after […] by light microscopic method. It counts as functional, cell-based.
Data set [6] deals with T5, Amine oxidase [flavin-containing] A (Homo sapiens, UniProt P21397).
T5 sequence (P21397 whole entry): T3 sequence (P21397 whole entry)

Data set [7] addresses T2, Amine oxidase [flavin-containing] B. As to the kind of experiment: Inhibition of MAO-B (unknown origin) using beetle luciferin derived luminogenic substrate preincubated for 15 mins followed by substrate addition measured after 60 mins by MAO-Glo assay.
Data set [8] has as its target T1, Lysine-specific histone demethylase 1A.
For data set [9] the target is unchanged. The conditions noted are these: 10 uM.
Data set [10] concerns the target T4, MAO-B. Kind of data set: in vitro. The following applies: MAO-B enzyme (unknown origin), probe beetle luciferin derived luminogenic substrate.
Data set [11] addresses T1, Lysine-specific histone demethylase 1A. This is another data set of the same source.

By inhibition is commonly meant the change of the read-out against control, counted positive when it falls. Broadly, the IC50 is the concentration that inhibits the measured activity by half. Low readings indicate greater potency in that assay, high ones weaker potency in that assay.

For the compound `C[C@@H]1[C@H](N)[C@H]1c1ccccc1.Cl` (relative stereo), the inhibition entry in data set [1] was “inactive”. For the same compound, the “inhibition (INH)” value in data set [2] was “Not Active”.

In the case of `C[C@@H]1[C@@H](N)[C@H]1c1ccccc1.Cl` (relative stereo), in data set [1], the inhibition entry was “inactive”. Also, in data set [2], the “inhibition (INH)” value is “Not Active”.

Take `Cc1ccc(CN[C@H]2C[C@@H]2c2ccccc2)cc1Cl` (relative stereo): the inhibition at 1 h, 1 µM on MAO-A [3] turned out to be 69%.

`COc1cccc(CN[C@H]2C[C@@H]2c2ccccc2)c1` (relative stereo) showed an inhibition at 1 h, 10 µM against MAO-A [4] of 79%. In addition, the “inhibition (INH)” value in [2] was “Not Active”.

As for `Clc1ccc(CN[C@H]2C[C@@H]2c2ccccc2)c(Cl)c1` (relative stereo), the inhibition at 1 h, 10 µM at MAO-A [4] is 73%; at MAO-B [5], 11%.

`C[C@@H]1[C@H](NCc2cccc([N+](=O)[O-])c2)[C@H]1c1ccccc1` (relative stereo): the inhibition result (with THP-1; in data set [9]) was “inactive” throughout. In addition, the IC50 in data set [6] is 0.237 µM; in data set [7], 2.2 µM. Moreover, the Tm in data set [8] came to 45.6 °C.

With `Fc1cccc(CN[C@H]2C[C@@H]2c2ccccc2)c1` (relative stereo), the inhibition at 1 h, 10 µM on MAO-A [4] turned out to be 69%; on MAO-B [5], 20%.

`c1ccc(COc2cccc(CN[C@H]3C[C@@H]3c3ccccc3)c2)cc1` (relative stereo): the inhibition at 1 h, 1 µM against MAO-A [3] came out at 60%; against MAO-B [10], 23%.

Turning to `Brc1ccc(COc2ccc(CN[C@H]3C[C@@H]3c3ccccc3)cc2)cc1` (relative stereo), the inhibition at 1 h, 1 µM against MAO-A [3] was 100%; on MAO-B [10] it was 44%.

Regarding `Clc1ccccc1CN[C@H]1C[C@@H]1c1ccccc1` (relative stereo), the inhibition at 1 h, 10 µM came out at 62% against MAO-A [4] and 21% against MAO-B [5].

As for `O=[N+]([O-])c1ccc(N[C@H]2C[C@@H]2c2ccccc2)s1` (relative stereo), the results for the inhibition at 1 h, 1 µM at MAO-A [3] and on MAO-B [10] were 94% and 79%, respectively.

On to `C[C@@H]1[C@H](NCc2ccc(Cl)cc2)[C@H]1c1ccccc1` (relative stereo), for which the inhibition entry (in the data set on THP-1; in data set [9]) was “inactive” throughout. The half-inhibitory concentration (IC50) came out at 0.31 µM in data set [6] and 10.5 µM in data set [7]. For the same compound, in [8], the Tm was determined as 47.9 °C.

Consider `CCc1ccc(CN[C@H]2C[C@@H]2c2ccccc2)cc1` (relative stereo), for which the inhibition at 1 h, 1 µM at MAO-A [3] is 33%; against MAO-B [10] it was 12%.

`c1ccc(COc2ccc(CN[C@H]3C[C@@H]3c3ccccc3)cc2)cc1` (relative stereo): the inhibition at 1 h, 1 µM at MAO-A [3] was found to be 93%; against MAO-B [10] it was 52%.

For the compound `COc1ncccc1CN[C@H]1[C@@H](C)[C@@H]1c1ccccc1` (relative stereo), the concentration for half-maximal inhibition (IC50) in data set [6] is 41.4 µM; in [11] it was “Not Active”. The compound also yielded an inhibition at 1 h, 10 µM at MAO-B [5] of 14%.

As to `NC(=O)c1cccc(CN[C@H]2C[C@@H]2c2ccccc2)c1` (relative stereo), the IC50 in data set [6] came out at 27.9 µM; in [7] it was 95.7 µM.

Consider `Ic1ccccc1CN[C@H]1C[C@@H]1c1ccccc1` (relative stereo), for which the inhibition at 1 h, 1 µM on MAO-A [3] was found to be 12%; on MAO-B [10] it was 16%.

In the case of `C[C@@H]1[C@H](NCc2ccc(Cl)cc2Cl)[C@H]1c1ccccc1` (relative stereo), the inhibition entry in data set [1] is “inactive”. Moreover, the IC50 in data set [6] came out at 0.78 µM; in data set [7], 56.2 µM.

Consider `O=[N+]([O-])c1ccccc1CN[C@H]1C[C@@H]1c1ccccc1` (relative stereo), for which the inhibition at 1 h, 1 µM amounted to 18% against MAO-A [3] and 15% against MAO-B [10].

Take `c1ccc(-c2cccc(CN[C@H]3C[C@@H]3c3ccccc3)c2)cc1` (relative stereo): the IC50 in [6] amounted to 0.161 µM. Besides, the “inhibition (INH)” value in data set [2] is recorded as “Not Active”.

On to `Cn1c(CN[C@H]2C[C@@H]2c2ccccc2)cc2ccccc21` (relative stereo), for which the inhibition at 1 h, 10 µM against MAO-A [4] turned out to be 54%; at MAO-B [5], 14%.

Turning to `CC(C)(C)c1ccc(CN[C@H]2C[C@@H]2c2ccccc2)cc1` (relative stereo), the values for the inhibition at 1 h, 1 µM on MAO-A [3] and against MAO-B [10] were 22% and 27%, respectively.

Regarding `Clc1cc(Cl)cc(CN[C@H]2C[C@@H]2c2ccccc2)c1` (relative stereo), the inhibition at 1 h, 1 µM against MAO-A [3] was determined as 30%; on MAO-B [10], 17%.

`COc1ccccc1CN[C@H]1[C@@H](C)[C@@H]1c1ccccc1` (relative stereo): the inhibition at 1 h, 10 µM on MAO-A [4] stood at 32%. The “inhibition (INH)” value in data set [2] was “Not Active”. The concentration for half-maximal inhibition (IC50) entry in [11] is given as “Not Active”.

With `O=[N+]([O-])c1cc(CN[C@H]2C[C@@H]2c2ccccc2)ccc1Cl` (relative stereo), the inhibition at 1 h, 10 µM against MAO-A [4] worked out at 100%; on MAO-B [5], 13%.

`C[C@H]1[C@@H](N)[C@H]1c1ccccc1.Cl` (relative stereo): the inhibition entry in data set [1] is “inactive”. Also, in data set [2], the “inhibition (INH)” value was “Not Active”.

On MAO-A [3], `Fc1ccc(CN[C@H]2C[C@@H]2c2ccccc2)cc1F` (relative stereo) yielded an inhibition at 1 h, 1 µM of 43%.

`O=[N+]([O-])c1ccc(N[C@H]2C[C@@H]2c2ccccc2)o1` (relative stereo) gave an inhibition at 1 h, 1 µM on MAO-A [3] of 27%.

Take `COc1ncccc1CN[C@H]1C[C@@H]1c1ccccc1`: the “inhibition (INH)” value in data set [2] is “Not Active”.

The compound `COc1ccccc1CN[C@H]1C[C@@H]1c1ccccc1` (relative stereo) yielded an inhibition at 1 h, 10 µM against MAO-B [5] of 36%.

Consider `Fc1ccc(CN[C@H]2C[C@@H]2c2ccccc2)cc1` (relative stereo), for which the inhibition at 1 h, 1 µM at MAO-A [3] came out at 27%.

The compound `c1ccc(CN[C@H]2C[C@@H]2c2ccccc2)cc1` (relative stereo) displayed a half-maximal inhibitory concentration (IC50) in data set [6] of 5.7 µM. Further, the inhibition at 1 h, 10 µM against MAO-B [5] stood at 33%.

`COc1ccc(CN[C@H]2C[C@@H]2c2ccccc2)cc1OC` (relative stereo) displayed an inhibition at 1 h, 10 µM against MAO-A [4] of 69%. The “inhibition (INH)” value in [2] is “Not Active”.

For `Brc1ccccc1CN[C@H]1C[C@@H]1c1ccccc1` (relative stereo), the inhibition at 1 h, 10 µM on MAO-A [4] amounted to 47%; on MAO-B [5], 24%.

In the case of `c1ccc([C@H]2C[C@@H]2NCc2cccnc2)cc1` (relative stereo), the “inhibition (INH)” value in data set [2] is given as “Not Active”.

Turning to `CC(=O)Nc1ccc(CN[C@H]2C[C@@H]2c2ccccc2)cc1` (relative stereo), the figures for the inhibition at 1 h, 10 µM on MAO-A [4] and at MAO-B [5] were 48% and 17%, respectively.

Consider `Fc1cc(Br)ccc1CN[C@H]1C[C@@H]1c1ccccc1` (relative stereo), for which the inhibition at 1 h, 1 µM on MAO-A [3] came to 27%.

`Brc1ccc(CN[C@H]2C[C@@H]2c2ccccc2)cc1` (relative stereo): the figures for the inhibition at 1 h, 10 µM on MAO-A [4] and against MAO-B [5] were 43% and 27%, respectively.

On MAO-A [3], `CN(C)c1ccc(CN[C@H]2C[C@@H]2c2ccccc2)cc1` (relative stereo) returned an inhibition at 1 h, 1 µM of 30%.

Take `Fc1ccccc1CN[C@H]1C[C@@H]1c1ccccc1` (relative stereo): the inhibition at 1 h, 10 µM against MAO-A [4] is 20%; at MAO-B [5] it was 16%.

`c1ccc(-c2ccc(CN[C@H]3C[C@@H]3c3ccccc3)cc2)cc1` (relative stereo): the inhibition at 1 h, 1 µM turned out to be 93% against MAO-A [3] and 82% on MAO-B [10].

In the case of `Brc1ccc(COc2cccc(CN[C@H]3C[C@@H]3c3ccccc3)c2)cc1` (relative stereo), the inhibition at 1 h, 1 µM on MAO-A [3] came out at 100%; against MAO-B [10] it was 32%.

In the case of `COc1ccc(CN[C@H]2C[C@@H]2c2ccccc2)cc1` (relative stereo), the inhibition at 1 h, 1 µM at MAO-A [3] was 30%.

The compound `Brc1cccc(CN[C@H]2C[C@@H]2c2ccccc2)c1` (relative stereo) returned an inhibition at 1 h, 1 µM against MAO-A [3] of 38%.
